Data from US20050124668A1, “Amino acids with affinity for the alpha2delta-protein” (priority 2003, published 2005).

How the values were obtained:
[1] = target: T1, α2δ-subunit of a calcium channel (Sus scrofa, UniProt A0A287BIN3); assay: radioligand binding assay using [3H]-gabapentin; conditions: α2δ-subunit derived from porcine brain tissue
T1 construct: the α2δ-subunit derived from porcine brain tissue was used; from tissue; host or cells: porcine brain tissue
Source text: The ability of compounds of the present invention to bind to the α2δ-subunit of a calcium channel can be determined using the following binding assay.
The radioligand binding assay using [^3H]-gabapentin and the α2δ-subunit derived from porcine brain tissue was used. See Nicolas S. Gee et al., “The novel anticonvulsant drug, gabapentin (Neurontin), binds to the α2 subunit of a calcium channel,” J. Biol. Chem. 271 (10):5768-76 (1996). Compounds of the invention bind with nanomolar to micromolar affinity for the α2δ protein.

T1 sequence (A0A287BIN3 25-1109): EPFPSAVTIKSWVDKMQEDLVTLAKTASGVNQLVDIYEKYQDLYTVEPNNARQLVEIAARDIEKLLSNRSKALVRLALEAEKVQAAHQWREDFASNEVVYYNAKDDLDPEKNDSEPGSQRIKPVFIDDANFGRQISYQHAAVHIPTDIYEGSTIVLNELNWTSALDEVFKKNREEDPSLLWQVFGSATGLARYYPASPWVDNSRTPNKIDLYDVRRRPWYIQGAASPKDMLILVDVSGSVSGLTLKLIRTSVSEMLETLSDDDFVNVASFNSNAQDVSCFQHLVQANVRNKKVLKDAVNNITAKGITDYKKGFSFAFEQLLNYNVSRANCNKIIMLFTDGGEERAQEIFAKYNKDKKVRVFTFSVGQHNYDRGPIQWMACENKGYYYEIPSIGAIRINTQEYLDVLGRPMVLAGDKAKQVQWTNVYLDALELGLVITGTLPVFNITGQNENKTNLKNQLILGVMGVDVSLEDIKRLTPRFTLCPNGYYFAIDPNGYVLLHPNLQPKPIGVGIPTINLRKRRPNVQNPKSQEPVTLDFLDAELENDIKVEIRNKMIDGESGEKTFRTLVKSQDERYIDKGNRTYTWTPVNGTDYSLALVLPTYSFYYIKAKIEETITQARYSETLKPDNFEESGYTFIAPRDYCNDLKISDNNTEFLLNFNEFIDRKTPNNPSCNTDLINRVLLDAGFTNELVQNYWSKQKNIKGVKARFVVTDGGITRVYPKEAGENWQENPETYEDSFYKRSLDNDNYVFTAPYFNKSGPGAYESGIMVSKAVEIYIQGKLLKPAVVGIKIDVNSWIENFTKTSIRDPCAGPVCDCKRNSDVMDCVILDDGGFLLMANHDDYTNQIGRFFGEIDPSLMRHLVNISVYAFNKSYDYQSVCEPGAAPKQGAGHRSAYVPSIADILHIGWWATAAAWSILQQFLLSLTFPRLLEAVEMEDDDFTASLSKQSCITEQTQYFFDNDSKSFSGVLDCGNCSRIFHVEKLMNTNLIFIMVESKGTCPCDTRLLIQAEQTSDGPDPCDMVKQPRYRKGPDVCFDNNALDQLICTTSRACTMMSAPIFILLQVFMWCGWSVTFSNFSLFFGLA

| Structure (SMILES) | affinity to the α2δ protein [1] [nM] | melting point [°C] |
| --- | --- | --- |
| CCCCC(CC)CCC(CN)C(=O)O (stereo not shown) [2-aminomethyl-5-ethyl-nonanoic acid] | 75 |  |
| CCC(CC)C[C@](C)(N)CC(=O)O [(S)-3-amino-5-ethyl-3-methyl-heptanoic acid] | 149 |  |
| CC[C@H](C)C[C@](C)(N)CC(=O)O |  | 215 to 217 |
| CC[C@@H](C)C[C@](C)(N)CC(=O)O [(3S,5R)-3-amino-3,5-dimethyl-heptanoic acid] | 236 |  |
